{"source": "patent US20010051184A1", "about": "“METHOD FOR USING SOLUBLE CURCUMIN TO INHIBIT PHOSPHORYLASE KINASE IN INFLAMMATORY DISEASES” (priority 1999, published 2001)", "key": {"[1]": {"experiment": "Solubility study on curcumin", "format": "physicochemical", "settings": "for Solubility result: 0.5 g of curcumin", "experimental": "Table 1 reports the results of a solubility study on curcumin. […] Curcumin is also not soluble in cold mineral oil or hot mineral oil. However, curcumin is soluble in 70% isopropyl alcohol to at least the extent of 0.5 g/50 ml."}, "phosphorylase kinase": {"test_system": "phosphorylase kinase", "experiment": "Phosphorylase kinase activity in treated psoriatic epidermis (Example 6)", "format": "in vivo, human", "settings": "mean±SD, n=10; curcumin alcoholic gel (1%) 4-6 weeks, Dovonex ointment 6-18 months; untreated psoriasis 1204.6±804.3, normal skin 105.4±44.6", "experimental": "With consent, punch biopsies were collected (6 mm) from active plaques of 10 patients with active untreated psoriasis, from resolving plaques from 10 patients each treated with curcumin alcoholic gel (1%) for 4-6 weeks, and with Dovonex ointment for 6-18 months. Normal skin was also biopsied from 10 non-psoriatic patients to monitor the results. From each site, skin biopsy samples (6 mm punch) were stored at −70° C., and processed thereafter as previously described (Heng et al. (1994), supra). Briefly, each frozen sample, with the epidermal surface facing upwards, was placed in a glass tube to which 3 ml Tris-HCl buffer (10 mM Tris-HCl, pH 7.8, 1 mM dithiothreitol (DDT), 3 mM MgSO4 and 1 mM EGTA) was added. This was homogenized vigorously with a Teflon plunger in a TRIS-R model K41 homogenizer for 1 sec. Homogenization was repeated if necessary. The lysate of epidermal cells, separated from the dermis, was in the cytosolic solution. The fibroblasts that were inadvertently detached, together with the relatively intact piece of dermis, were removed by decanting the cytosolic solution into a 5 ml capacity polypropylene test tube. […] The filter paper containing […] was counted in a liquid scintillation counter. Enzyme activity was determined based on the standard curve prepared with phosphorylase kinase of known activity supplied by Sigma Co (St. Louis, Mo.)."}, "TRR+ keratinocytes": {"test_system": "TRR+ keratinocytes", "experiment": "Transferrin receptor (TRR) expression by keratinocytes in treated psoriasis", "format": "in vivo, human", "settings": "mean, n=10; treated resolving psoriasis; untreated 60.1%, normal skin 4.3%", "experimental": "With consent, punch biopsies were collected (6 mm) from active plaques of 10 patients with active untreated psoriasis, from resolving plaques from 10 patients each treated with curcumin alcoholic gel (1%) for 4-6 weeks, and with Dovonex ointment for 6-18 months. Normal skin was also biopsied from 10 non-psoriatic patients to monitor the results. Biopsy specimens for immunocytochemistry were embedded in OCT compound (Tissue-Tek), snap-frozen in liquid nitrogen and stored at −70° C. Serial cryostat sections (4 Tm) were mounted on gelatin-coated slides and air-dried for 30 mins at room temperature. The mounted sections were then freeze-dried for 4 hours, fixed in acetone for 20 mins at room temperature, and air-dried for 5 mins prior to immunostaining. Monoclonal antibodies (as listed at Table 7), were added to the sections, which were then incubated for 60 mins at room temperature, washed in phosphate-buffered saline (PBS) pH 7.6, and overlaid with peroxidase conjugate. All monoclonal antibodies had been obtained from Becton-Dickinson and were used at 1:100 dilution. […] The expression of TRR on basal and suprabasal keratinocytes was quantified as the percentage of TRR+ keratinocytes per rete ridge. The keratinocytes of 10 consecutive rete ridges were assessed in for each biopsy and the results averaged."}, "[2]": {"test_system": "parakeratosis of stratum corneum", "experiment": "Severity of parakeratosis in treated psoriasis", "format": "in vivo, human", "settings": "mean±SD, untreated 94.6±4.3%", "text": "With consent, punch biopsies were collected (6 mm) from active plaques of 10 patients with active untreated psoriasis, from resolving plaques from 10 patients each treated with curcumin alcoholic gel (1%) for 4-6 weeks, and with Dovonex ointment for 6-18 months. Normal skin was also biopsied from 10 non-psoriatic patients to monitor the results. Parakeratosis, assessed histologically by the loss of granular layer and the presence of nuclei of immature keratinocytes within the stratum comeum, reflects in part the migratory capacity of basal keratinocytes towards the stratum comeum. The severity of parakeratosis is assessed as % involvement of a 4 mm linear strip of stratum comeum. An average of three sections per biopsy specimen was used for data analysis."}, "epidermal CD8+ T cells": {"test_system": "epidermal CD8+ T cells", "experiment": "Epidermal CD8+ T-cell density in treated psoriasis", "format": "in vivo, human", "settings": "mean, untreated 38.2", "experimental": "(§1) With consent, punch biopsies were collected (6 mm) from active plaques of 10 patients with active untreated psoriasis, from resolving plaques from 10 patients each treated with curcumin alcoholic gel (1%) for 4-6 weeks, and with Dovonex ointment for 6-18 months. Normal skin was also biopsied from 10 non-psoriatic patients to monitor the results. Biopsy specimens for immunocytochemistry were embedded in OCT compound (Tissue-Tek), snap-frozen in liquid nitrogen and stored at −70° C. Serial cryostat sections (4 Tm) were mounted on gelatin-coated slides and air-dried for 30 mins at room temperature. The mounted sections were then freeze-dried for 4 hours, fixed in acetone for 20 mins at room temperature, and air-dried for 5 mins prior to immunostaining. Monoclonal antibodies (as listed at Table 7), were added to the sections, which were then incubated for 60 mins at room temperature, washed in phosphate-buffered saline (PBS) pH 7.6, and overlaid with peroxidase conjugate. All monoclonal antibodies had been obtained from Becton-Dickinson and were used at 1:100 dilution. The sections were then washed with PBS and the peroxidase color developed using diaminobenzidine. Negative controls from all patients were processed as above, omitting the monoclonal antibodies. […] The density of the epidermal CD8+ T-cells was enumerated and quantified as the number of epidermal CD8+ T cells per hpf. […]"}, "HLA-DR+ cells": {"test_system": "HLA-DR+ cells", "experiment": "HLA-DR expression in treated psoriasis", "format": "in vivo, human", "experimental": "as §1, with “diaminobenzidine.” for “diaminobenzidine. Negative controls from all patients were processed as above, omitting the monoclonal antibodies.”, “activated HLA+ inflammatory cell population” for “density of the epidermal CD8+ T-cells”, “assessed as abundant (200-500 or more cells/hpf), moderate (50-200 cells/hpf),” for “enumerated”, “sparse (1-50/hpf).” for “quantified as the number of epidermal CD8+ T cells per hpf.”"}, "psoriatic plaques": {"test_system": "psoriatic plaques", "experiment": "Clinical resolution of psoriatic plaques", "format": "in vivo, human", "settings": "clinical observations", "text": "With consent, punch biopsies were collected (6 mm) from active plaques of 10 patients with active untreated psoriasis, from resolving plaques from 10 patients each treated with curcumin alcoholic gel (1%) for 4-6 weeks, and with Dovonex ointment for 6-18 months. Normal skin was also biopsied from 10 non-psoriatic patients to monitor the results.\nIn this study, the anti-psoriatic activity of curcumin is reported. Also known as diferuloylmethane, curcumin is a component in spices such as turmeric and ginger. […] Based on clinical observations that untreated psoriatic plaques resolve within 4-6 weeks with curcumin and between 6-18 months or more with Dovonex, the results of this Example lead to the conclusion that curcumin is at least as effective as Dovonex in producing clinical resolution of psoriatic plaques."}, "CD3+ T lymphocytes": {"test_system": "CD3+ T lymphocytes", "experiment": "CD3+ T lymphocytes in curcumin-treated psoriatic skin (immunohistochemistry, FIG. 9)", "format": "in vivo, human", "settings": "FIG. 9b; T lymphocytes present only within dermal blood vessels"}}, "data": [{"molecule": "COc1cc(/C=C/C(=O)CC(=O)/C=C/c2ccc(O)c(OC)c2)ccc1O", "note": "[curcumin, (E, E) 1,7-bis(4-hydroxy-3-methoxyphenyl)-1,6-heptadiene-3,5-dione]", "values": [{"measurement": "Solubility in 70% isopropyl alcohol", "setting": "[1]; 70% isopropyl alcohol", "value": "≥ 0.5", "unit": "g/50 ml"}, {"measurement": "Solubility result", "setting": "[1]; 70% isopropyl alcohol, 5 ml", "value": "Soluble (some precipitate?"}, {"measurement": "Solubility result", "setting": "[1]; 70% isopropyl alcohol, 50 ml", "value": "Soluble (no precipitate)"}, {"measurement": "Solubility result", "setting": "[1]; Cold water, 5 ml", "value": "Not soluble (precipitate present)"}, {"measurement": "Solubility result", "setting": "[1]; Cold water, 50 ml", "value": "Not soluble (precipitate present)"}, {"measurement": "Solubility result", "setting": "[1]; Cold water, 500 ml", "value": "Not soluble (precipitate present)"}, {"measurement": "Solubility result", "setting": "[1]; Mineral oil (140° F.), 5 ml", "value": "Not soluble (precipitate present)"}, {"measurement": "Solubility result", "setting": "[1]; Mineral oil (140° F.), 50 ml", "value": "Not soluble (precipitate present)"}, {"measurement": "Solubility result", "setting": "[1]; Mineral oil, 5 ml", "value": "Not soluble (precipitate present)"}, {"measurement": "Solubility result", "setting": "[1]; Mineral oil, 50 ml", "value": "Not soluble (precipitate present)"}, {"measurement": "Solubility result", "setting": "[1]; Water (200° F.), 5 ml", "value": "Not soluble (precipitate present)"}, {"measurement": "Solubility result", "setting": "[1]; Water (200° F.), 50 ml", "value": "Not soluble (precipitate present)"}, {"measurement": "Solubility result", "setting": "[1]; Water (200° F.), 500 ml", "value": "Not soluble (precipitate present)"}, {"measurement": "Solubility", "setting": "[1]; cold mineral oil", "value": "not soluble"}, {"measurement": "Solubility", "setting": "[1]; cold water", "value": "not soluble"}, {"measurement": "Solubility", "setting": "[1]; hot mineral oil", "value": "not soluble"}, {"measurement": "Solubility", "setting": "[1]; hot water", "value": "not soluble"}, {"measurement": "Phosphorylase kinase activity in treated psoriatic epidermis", "setting": "phosphorylase kinase", "value": "207.2±97.6", "unit": "units/mg protein"}, {"measurement": "Percentage of TRR+ keratinocytes/rete ridge", "setting": "TRR+ keratinocytes", "value": 4.3, "unit": "%"}, {"measurement": "Parakeratosis, linear involvement of stratum corneum", "setting": "[2]", "value": "1.4±2.4", "unit": "%"}, {"measurement": "Number of epidermal CD8+ cells/hpf", "setting": "epidermal CD8+ T cells", "value": 0.6, "unit": "cells/hpf"}, {"measurement": "Overall HLA-DR expression (HLA-DR+ inflammatory cell population), grade per specimen", "setting": "HLA-DR+ cells; 10 skin specimens per treated group, untreated abundant in 10/10", "value": "sparse (sparse (1-50/hpf))"}, {"measurement": "HLA-DR expression on endothelial cells and keratinocytes", "setting": "HLA-DR+ cells; treated psoriasis, untreated strongly positive", "value": "not observed"}, {"measurement": "Time for psoriatic plaques to resolve under curcumin treatment", "setting": "psoriatic plaques", "value": "4-6 weeks"}, {"measurement": "CD3+ T lymphocytes in epidermis of treated resolving psoriatic skin", "setting": "CD3+ T lymphocytes", "value": "lack of T lymphocytes in epidermis"}]}]}
